Measured values taken from patent US9085603B2, “Progesterone receptor antagonists” (Bayer Intellectual Property GmbH, priority 2010, dated 2015).

Columns and labels:
[1] = molecular target: T1, human progesterone receptor B (Homo sapiens, UniProt P06401); experiment: Progesterone receptor antagonistic effect in stably transfected SK-N-MC cells, MTV-LUC reporter (PR-B); type: cell-based; conditions: antagonism of 0.1 nmol/l promegestone, luciferase reporter, 24 hours
T1 construct: expressed in transfected cells; host or cells: SK-N-MC human neuroblastoma cells, stably transfected with pRChPR-B-neo and pMMTV-LUC
T1 sequence (P06401 1-933): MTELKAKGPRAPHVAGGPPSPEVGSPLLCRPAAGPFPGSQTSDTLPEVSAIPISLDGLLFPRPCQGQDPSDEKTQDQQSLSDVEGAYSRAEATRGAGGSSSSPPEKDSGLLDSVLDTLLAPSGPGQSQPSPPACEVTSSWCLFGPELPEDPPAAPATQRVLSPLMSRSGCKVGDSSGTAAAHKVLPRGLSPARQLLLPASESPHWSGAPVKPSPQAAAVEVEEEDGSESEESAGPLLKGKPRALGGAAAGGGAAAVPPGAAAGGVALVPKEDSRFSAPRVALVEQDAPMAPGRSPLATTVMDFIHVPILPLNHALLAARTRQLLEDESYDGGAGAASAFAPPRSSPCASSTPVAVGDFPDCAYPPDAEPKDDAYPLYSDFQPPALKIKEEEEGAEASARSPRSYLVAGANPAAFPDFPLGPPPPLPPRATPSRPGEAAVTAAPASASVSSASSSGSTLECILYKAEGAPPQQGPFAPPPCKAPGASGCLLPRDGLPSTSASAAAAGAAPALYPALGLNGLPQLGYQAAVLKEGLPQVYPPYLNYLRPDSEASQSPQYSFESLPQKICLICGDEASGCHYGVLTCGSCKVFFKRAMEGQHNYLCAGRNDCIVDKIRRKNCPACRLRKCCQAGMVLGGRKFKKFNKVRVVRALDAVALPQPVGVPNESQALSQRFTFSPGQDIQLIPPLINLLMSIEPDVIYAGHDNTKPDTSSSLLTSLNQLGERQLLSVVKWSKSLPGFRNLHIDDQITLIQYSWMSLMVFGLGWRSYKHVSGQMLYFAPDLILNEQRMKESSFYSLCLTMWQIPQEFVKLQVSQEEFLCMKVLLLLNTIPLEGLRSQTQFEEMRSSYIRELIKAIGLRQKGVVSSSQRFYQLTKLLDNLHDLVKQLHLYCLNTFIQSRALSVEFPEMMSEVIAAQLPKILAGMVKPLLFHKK
Protocol: Progesterone Receptor Antagonistic Effect in Stable Transfectants of Human Neuroblastoma Cells (SK-N-MC cells) with the Human Progesterone A or Progesterone B Receptor and a MTV-LUC Reporter Construct
SK-N-MC cells (human neuroblastoma cells), which have been stably transfected with plasmids which express the human progesterone receptor B (pRChPR-B-neo) or the human progesterone receptor A (pRChPR-A-neo) and a reporter construct (pMMTV-LUC), were incubated for 24 hours either in the absence (negative control) or in the presence of increasing amounts of the particular test compound (0.01 nmol/l, 0.1 nmol/l, 1 nmol/l, 10 nmol/l, 100 nmol/l and 1 μmol/l) in order to determine the agonistic efficacy. As a positive control of the reporter gene induction, the cells were treated with the synthetic gestagen promegestone (0.01 nmol/l, 0.1 nmol/l, 1 nmol/l, 10 nmol/l, 100 nmol/l and 1 μmol/l). To determine the antagonistic activity, the cells were treated with 0.1 nmol/l of promegestone and additionally with increasing amounts of the particular test compound (0.01 nmol/l, 0.1 nmol/l, 1 nmol/l, 10 nmol/l, 100 nmol/l and 1 μmol/l). The activity of the reporter gene LUC (LUC=luciferase) was determined in the cell lysates and measured as RLU (relative light units). All measurement values are given as percentage efficacy and as EC50 or IC50 concentrations.

[2] = molecular target: T2, human progesterone receptor A (Homo sapiens, UniProt P06401); experiment: Progesterone receptor antagonistic effect in stably transfected SK-N-MC cells, MTV-LUC reporter (PR-A); type: cell-based; conditions: antagonism of 0.1 nmol/l promegestone, luciferase reporter, 24 hours
T2 construct: expressed in transfected cells; host or cells: SK-N-MC human neuroblastoma cells, stably transfected with pRChPR-A-neo and pMMTV-LUC
T2 sequence (P06401 1-769 isoform P06401-2): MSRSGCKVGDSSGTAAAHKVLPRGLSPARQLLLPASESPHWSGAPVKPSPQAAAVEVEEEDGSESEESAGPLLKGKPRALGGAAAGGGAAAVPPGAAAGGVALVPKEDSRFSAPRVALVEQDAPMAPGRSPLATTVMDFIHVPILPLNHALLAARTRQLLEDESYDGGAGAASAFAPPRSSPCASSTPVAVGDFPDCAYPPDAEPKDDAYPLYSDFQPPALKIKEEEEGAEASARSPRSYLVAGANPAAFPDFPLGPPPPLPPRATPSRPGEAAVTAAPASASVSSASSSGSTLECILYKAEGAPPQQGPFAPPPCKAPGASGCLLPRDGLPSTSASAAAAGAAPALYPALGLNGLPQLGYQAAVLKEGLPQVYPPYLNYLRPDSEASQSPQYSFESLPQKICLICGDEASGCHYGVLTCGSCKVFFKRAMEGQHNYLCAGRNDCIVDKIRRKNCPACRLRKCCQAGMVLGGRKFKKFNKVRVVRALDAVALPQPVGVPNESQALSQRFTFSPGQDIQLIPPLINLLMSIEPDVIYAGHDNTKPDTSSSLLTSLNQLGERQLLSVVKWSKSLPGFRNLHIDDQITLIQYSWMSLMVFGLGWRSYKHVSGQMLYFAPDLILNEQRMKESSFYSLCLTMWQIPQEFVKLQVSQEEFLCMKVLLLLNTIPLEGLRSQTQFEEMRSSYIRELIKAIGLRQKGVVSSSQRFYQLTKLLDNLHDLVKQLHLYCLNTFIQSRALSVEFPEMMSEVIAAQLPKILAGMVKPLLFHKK
Outline: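 Stably transfected SK-N-MC cells with PR-A or PR-B and MMTV-LUC reporter, treated 24 h with 0.1 nmol/l promegestone plus test compound at 0.01 nmol/l–1 μmol/l. Luciferase in cell lysates read as RLU; values given as percentage efficacy and IC50.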

pregnant rats = experiment: Abortive test on female rats (termination of early pregnancy); type: in vivo, rat; conditions: for Abortion rate: d5-d7 p.c., autopsy d9 p.c.
Protocol: The antagonistic effect of the compounds according to the invention was tested on pregnant rats (6 rats per group) on day (d) 5 to 7 post coitum (p.c.) under conventional keeping and feeding conditions.
After successful pairing, the pregnant animals (presence of sperm in the vaginal smear on day 1 of the pregnancy=d1 p.c.) were randomized and divided into the treatment group and the control group. The animals were then given, subcutaneously or orally, in each case 0.15; 0.5; 1.5 or 5 mg/kg of the test compound or […] of vehicle (benzyl benzoate/ricinus oil: 1+4 [v/v]) daily from day 5 to day 7 (d5-d7 p.c.).
The autopsy was carried out on day 9 (d9 p.c.). As the parameter of the progesterone receptor antagonistic effect, the uterus was investigated with regard to the presence of nidation sites. Here, the complete lack of nidation sites, but also the presence of pathological, haemmorhagic or otherwise abnormal nidation sites, on day 9 (d9 p.c.) was evaluated as an abortion.

Compound: CC(C)(C)C(=O)N1CCN(Cc2ccc([C@H]3C[C@@]4(C)C(CC[C@@]4(O)C(F)(F)C(F)(F)F)C4CCC5=CC(=O)CCC5=C43)cc2)CC1 (stereo partly drawn) [Example 14, (11β,17β)-11-(4-{[4-(2,2-Dimethylpropanoyl)piperazin-1-yl]methyl}phenyl)-17-hydroxy-17-(pentafluoroethyl)estra-4,9-dien-3-one]
- IC50 [1]: 0.094 nM
- IC50 [2]: 0.1 nM

Compound: CC(=O)N1CCCN(Cc2ccc([C@H]3C[C@@]4(C)C(CC[C@@]4(O)C(F)(F)C(F)(F)F)C4CCC5=CC(=O)CCC5=C43)cc2)CC1 (stereo partly drawn) [Example 17, (11β,17β)-11-{4-[(4-Acetyl-1,4-diazepan-1-yl)methyl]phenyl}-17-hydroxy-17-(pentafluoroethyl)estra-4,9-dien-3-one]
- IC50 [1]: 0.57 nM
- IC50 [2]: 0.56 nM

Compound: C[C@]12C[C@H](c3ccc(CN4CCCNCC4)cc3)C3=C4CCC(=O)C=C4CCC3C1CC[C@@]2(O)C(F)(F)C(F)(F)F (stereo partly drawn) [Example 16, (11β,17β)-11-[4-(1,4-Diazepan-1-ylmethyl)phenyl]-17-hydroxy-17-(pentafluoroethyl)estra-4,9-dien-3-one]
- IC50 [1]: 2.8 nM
- IC50 [2]: 2.7 nM

Compound: C[C@]12C[C@H](c3ccc(CNCCc4ccccc4)cc3)C3=C4CCC(=O)C=C4CC[C@H]3[C@@H]1CC[C@@]2(O)C(F)(F)C(F)(F)F [Example 9, (11β,17β)-17-Hydroxy-17-(pentafluoroethyl)-11-(4-{[(2-phenylethyl)amino]methyl}phenyl)estra-4,9-dien-3-one]
- IC50 [1]: 0.98 nM
- IC50 [2]: 1.3 nM

Compound: C[C@]12C[C@H](c3ccc(CN4CCS(=O)(=O)CC4)cc3)C3=C4CCC(=O)C=C4CCC3C1CC[C@@]2(O)C(F)(F)C(F)(F)F (stereo partly drawn) [Example 8, (11β,17β)-11-{4-[(1,1-Dioxidothiomorpholin-4-yl)methyl]phenyl}-17-hydroxy-17-(pentafluoroethyl)estra-4,9-dien-3-one]
- IC50 [1]: 0.3 nM
- IC50 [2]: 0.1 nM

Compound: C[C@]12C[C@H](c3ccc(CN4CCOCC4)cc3)C3=C4CCC(=O)C=C4CC[C@H]3[C@@H]1CC[C@@]2(O)C(F)(F)C(F)(F)F [Example 7, (11β,17β)-17-Hydroxy-11-[4-(morpholin-4-ylmethyl)phenyl]-17-(pentafluoroethyl)estra-4,9-dien-3-one]
- IC50 [1]: 0.1 nM
- IC50 [2]: 0.1 nM

Compound: C[C@]12C[C@H](c3ccc(CN4CCN(C(=O)c5ccccc5)CC4)cc3)C3=C4CCC(=O)C=C4CCC3C1CC[C@@]2(O)C(F)(F)C(F)(F)F (stereo partly drawn) [Example 13, (11β,17β)-11-{4-[(4-Benzoylpiperazin-1-yl)methyl]phenyl}-17-hydroxy-17-(Pentafluoroethyl)estra-4,9-dien-3-one]
- IC50 [1]: 0.1 nM
- IC50 [2]: 0.092 nM

Compound: C[C@]12C[C@H](c3ccc(CN4CCC(C(=O)O)CC4)cc3)C3=C4CCC(=O)C=C4CC[C@H]3[C@@H]1CC[C@@]2(O)C(F)(F)C(F)(F)F [Example 15, 1-{4-[(11β,17β)-17-hydroxy-3-oxo-17-(pentafluoroethyl)estra-4,9-dien-11-yl]benzyl}piperidine-4-carboxylic acid]
- IC50 [1]: 60 nM
- IC50 [2]: 53 nM

Compound: C[C@]12C[C@H](c3ccc(CN4CCCCC4)cc3)C3=C4CCC(=O)C=C4CC[C@H]3[C@@H]1CC[C@@]2(O)C(F)(F)C(F)(F)F [Example 4, (11β,17β)-17-Hydroxy-17-(pentafluoroethyl)-11-[4-(piperidin-1-ylmethyl)phenyl]estra-4,9-dien-3-one]
- IC50 [1]: 2.1 nM
- IC50 [2]: 1.4 nM

Compound: COC(=O)C1CCN(Cc2ccc([C@H]3C[C@@]4(C)[C@@H](CC[C@@]4(O)C(F)(F)C(F)(F)F)[C@@H]4CCC5=CC(=O)CCC5=C43)cc2)CC1 [Example 5, Methyl 1-{4-[(11β,17β)-17-hydroxy-3-oxo-17-(pentafluoroethyl)estra-4,9-dien-11-yl]benzyl}piperidine-4-carboxylate]
- IC50 [1]: 0.99 nM
- IC50 [2]: 1.2 nM

Compound: C[C@]12C[C@H](c3ccc(CN4CCN(S(C)(=O)=O)CC4)cc3)C3=C4CCC(=O)C=C4CC[C@H]3[C@@H]1CC[C@@]2(O)C(F)(F)C(F)(F)F [Example 12, (11β,17β)-17-Hydroxy-11-(4-{[4-(methylsulphonyl)piperazin-1-yl]methyl}phenyl)-17-(pentafluoroethyl)estra-4,9-dien-3-one]
- IC50 [1]: 0.1 nM
- IC50 [2]: 0.17 nM
- Abortion rate (pregnant rats; daily dose 0.5 mg/kg p.o.): 100%
- Abortion rate (pregnant rats; daily dose 1.5 mg/kg p.o.): 100%
- Abortion rate (pregnant rats; daily dose 5.0 mg/kg p.o.): 100%
- In vivo properties in preclinical tests (pregnant rats; preclinical tests, not further specified): exceptional in vivo properties

Compound: C[C@]12C[C@H](c3ccc(CN4CCNCC4)cc3)C3=C4CCC(=O)C=C4CC[C@H]3[C@@H]1CC[C@@]2(O)C(F)(F)C(F)(F)F [Example 10, (11β,17β)-17-Hydroxy-17-(pentafluoroethyl)-11-[4-(piperazin-1-yl-methyl)phenyl]estra-4,9-dien-3-one]
- IC50 [1]: 0.12 nM
- IC50 [2]: 0.88 nM

Compound: CN(C)Cc1ccc([C@H]2C[C@@]3(C)C(CC[C@@]3(O)C(F)(F)C(F)(F)F)C3CCC4=CC(=O)CCC4=C32)cc1 (stereo partly drawn) [Example 1, (11β,17β)-11-{4-[(Dimethylamino)methyl]phenyl}-17-hydroxy-17-(pentafluoroethyl)estra-4,9-dien-3-one]
- IC50 [1]: 8.2 nM
- IC50 [2]: 7.5 nM

Compound: CC(C)(C)OC(=O)N1CCN(Cc2ccc([C@H]3C[C@@]4(C)[C@@H](CC[C@@]4(O)C(F)(F)C(F)(F)F)[C@@H]4CCC5=CC(=O)CCC5=C43)cc2)CC1 [Example 3, tert-Butyl 4-{4-[(11β,17β)-17-hydroxy-3-oxo-17-(pentafluoroethyl)estra-4,9-dien-11-yl]benzyl}piperazine-1-carboxylate]
- IC50 [1]: 0.15 nM
- IC50 [2]: 0.11 nM
